Tests used:
[1] = test system: MOLT-3 (T cell acute lymphoblastic leukemia); assay: Cytotoxic activity assay (XTT); format: cell-based, human; details: for IC50: Homo sapiens, MOLT-3, 48 h exposure, XTT, read-out: Cell lines, IC50 (μM) MOLT-3; for Selectivity Index (SI) values MOLT-3: SI = IC50 normal cell (MRC-5)/ IC50 cancer cell
Text: (§1) The synthetic compounds were screened for their cytotoxic activity using standard MTT or XTT methods[30] against a panel of nine human cancer cell lines and one normal cell line, including MDA-MB-231 (triple-negative breast cancer), T-47D (hormone-dependent breast cancer), HepG2 (hepatocellular carcinoma), A549 (lung adenocarcinoma), H69AR (multidrug-resistant small cell lung carcinoma), HuCCA-1 (cholangiocarcinoma derived from a patient), HeLa (cervical carcinoma), and two leukemia cell lines, HL-60 (acute promyelocytic leukemia) and MOLT-3 (T cell acute lymphoblastic leukemia). MRC-5 normal embryonic lung fibroblast cell line was used to represent normal cells. Chemotherapeutic drugs, doxorubicin and etoposide, were used as positive controls.
(§2) The cells were seeded into 96-well plates (100 µL for adherent cells and 75 µL for suspended cells) at a density of 5000–20,000 cells per well, depending on their growth rates. Adherent and suspended cells were then allowed to grow at 37 °C with 95% humidity and 5% CO2 for 24 h and 30 min, respectively. The cytotoxicity assay was initiated by adding an equal volume of cell culture medium containing tested compound at predetermined concentrations. Following 48 h of exposure, cell viability was determined using MTT assay for adherent cells[51],[52]or XTT assay for suspeended cells. Briefly, for adherent cells, 100 µL of the MTT reagent was added to each well, and the microtiter plates were further incubated for 2.5–4 h. The medium was subsequently replaced with 100 µL of DMSO to dissolve the purple formazan before the absorbance at 550 nm was measured using a microplate reader (a SpectraMax Plus 384) with a reference wavelength of 650 nm. For suspended cells, 75 µL of the XTT reagent was added to each well, and the cells were further incubated for 4 h. Afterwards, the absorbance of orange formazan at 492 nm was measured with a reference wavelength of 690 nm using a microplate reader.

[2] = test system: HL-60 (acute promyelocytic leukemia); assay: Cytotoxic activity assay (XTT); format: cell-based, human; details: for IC50: Homo sapiens, HL-60, 48 h exposure, XTT, read-out: Cell lines, IC50 (μM) HL-60; for Selectivity Index (SI) values HL-60: SI = IC50 normal cell (MRC-5)/ IC50 cancer cell
Text: as §1, §2

[3] = test system: T-47D (hormone-dependent breast cancer); assay: Cytotoxic activity assay (MTT); format: cell-based, human; details: for IC50: Homo sapiens, T47D, 48 h exposure, MTT, read-out: Cell lines, IC50 (μM) T47-D; for Selectivity Index (SI) values T47-D: SI = IC50 normal cell (MRC-5)/ IC50 cancer cell
Text: as §1, §2

[4] = test system: HuCCA-1 (cholangiocarcinoma derived from a patient); assay: Cytotoxic activity assay (MTT); format: cell-based, human; details: for IC50: Homo sapiens, HuCC-A1, 48 h exposure, MTT, read-out: Cell lines, IC50 (μM) HuCCA-1; for Selectivity Index (SI) values HuCCA-1: SI = IC50 normal cell (MRC-5)/ IC50 cancer cell
Text: as §1, §2

[5] = test system: HepG2 (hepatocellular carcinoma); assay: Cytotoxic activity assay (MTT); format: cell-based, human; details: for IC50: Homo sapiens, HepG2, 48 h exposure, MTT, read-out: Cell lines, IC50 (μM) HepG2; for Selectivity Index (SI) values HepG2: SI = IC50 normal cell (MRC-5)/ IC50 cancer cell
Text: as §1, §2

[6] = test system: HeLa (cervical carcinoma); assay: Cytotoxic activity assay (MTT); format: cell-based, human; details: for IC50: Homo sapiens, 48 h exposure, MTT, read-out: Cell lines, IC50 (μM) HeLa; for Selectivity Index (SI) values HeLa: SI = IC50 normal cell (MRC-5)/ IC50 cancer cell
Text: as §1, §2

[7] = test system: A549 (lung adenocarcinoma); assay: Cytotoxic activity assay (MTT); format: cell-based, human; details: for IC50: Homo sapiens, A549, 48 h exposure, MTT, read-out: Cell lines, IC50 (μM) A549; for Selectivity Index (SI) values A549: SI = IC50 normal cell (MRC-5)/ IC50 cancer cell
Text: as §1, §2

[8] = test system: H69AR (multidrug-resistant small cell lung carcinoma); assay: Cytotoxic activity assay (MTT); format: cell-based, human; details: for IC50: Homo sapiens, H69AR, 48 h exposure, MTT, read-out: Cell lines, IC50 (μM) H69AR; for Selectivity Index (SI) values H69AR: SI = IC50 normal cell (MRC-5)/ IC50 cancer cell
Text: as §1, §2

[9] = test system: MDA-MB-231 (triple-negative breast cancer); assay: Cytotoxic activity assay (MTT); format: cell-based, human; details: for IC50: Homo sapiens, MDA-MB-231, 48 h exposure, MTT, read-out: Cell lines, IC50 (μM) MDA-MB-231; for Selectivity Index (SI) values MDA-MB-231: SI = IC50 normal cell (MRC-5)/ IC50 cancer cell
Text: as §1, §2

[10] = test system: MRC-5 normal embryonic lung fibroblast cell line; assay: Cytotoxic activity assay (MTT), normal cells; format: cell-based; details: Homo sapiens, MRC5, 48 h exposure, read-out: Cell lines, IC50 (μM) MRC-5
Text: as §1, §2

| Compound | IC50 [1] | Selectivity Index (SI) values MOLT-3 [1] | IC50 [2] | Selectivity Index (SI) values HL-60 [2] | IC50 [3] | Selectivity Index (SI) values T47-D [3] | IC50 [4] | Selectivity Index (SI) values HuCCA-1 [4] | IC50 [5] | Selectivity Index (SI) values HepG2 [5] | IC50 [6] | Selectivity Index (SI) values HeLa [6] | IC50 [7] | Selectivity Index (SI) values A549 [7] | IC50 [8] | Selectivity Index (SI) values H69AR [8] | IC50 [9] | Selectivity Index (SI) values MDA-MB-231 [9] | IC50 [10] |
| --- | --- | --- | --- | --- | --- | --- | --- | --- | --- | --- | --- | --- | --- | --- | --- | --- | --- | --- | --- |
| C=C1CC[C@H]2C(C)(C)CCC[C@]2(C)[C@H]1CC/C(C)=C/C(=O)N(C)C [Compound 4m, (E)-N,N,3-Trimethyl-5-((1S,4aS,8aS)-5,5,8a-trimethyl-2-methylenedecahydro-naphthalen-1-yl)pent-2-enamide] | 21.3 ± 0.47 µM | 1.9 | 19.4 ± 0.84 µM | 2.1 | 42.6 ± 1.08 µM | 1.0 | 44.31 ± 0.42 µM | 0.9 | 52.1 ± 2.82 µM | 0.8 | 40.1 ± 0.68 µM | 1.0 | 51.82 ± 0.25 µM | 0.8 | 99.97 ± 0.74 µM | 0.4 | 32.1 ± 1.68 µM | 1.3 | 40.8 ± 0.56 µM |
| C=C1CC[C@H]2C(C)(C)CCC[C@]2(C)[C@H]1CC/C(C)=C/C(=O)NOC [Compound 4i, (E)-N-Methoxy-3-methyl-5-((1S,4aS,8aS)-5,5,8a-trimethyl-2-methylene-decahydronaphthalen-1-yl)pent-2-enamide] | 21.4 ± 1.29 µM | 2.5 | 24.9 ± 0.45 µM | 2.1 | 41.3 ± 1.61 µM | 1.3 | 49.8 ± 0.18 µM | 1.1 | 44.26 ± 0.4 µM | 1.2 | 53.8 ± 0.83 µM | 1.0 | 45.7 ± 0.63 µM | 1.2 | 96.91 ± 0.46 µM | 0.5 | 45 ± 0.86 µM | 1.2 | 52.68 ± 0.03 µM |
| COc1cc([C@@H]2c3cc4c(cc3[C@@H](O[C@@H]3O[C@@H]5CO[C@@H](C)O[C@H]5[C@H](O)[C@H]3O)[C@H]3COC(=O)[C@H]23)OCO4)cc(OC)c1O [ETO, etoposide, reference compound] | 0.07 ± 0.12 µM | – | 1.21 ± 0.15 µM | – | – | – | – | – | – | – | – | – | – | – | – | – | – | – | – |
| COc1cccc2c1C(=O)c1c(O)c3c(c(O)c1C2=O)C[C@@](O)(C(=O)CO)C[C@@H]3O[C@H]1C[C@H](N)[C@H](O)[C@H](C)O1 [DOX, doxorubicin, reference compound] | – | – | – | – | 0.47 ± 0.03 µM | 1.6 | 0.78 ± 0.06 µM | 1.0 | 0.4 ± 0.02 µM | 1.9 | 0.48 ± 0.01 µM | 1.6 | 0.38 ± 0.03 µM | 2.0 | 38.08 ± 0.29 µM | – | 2.7 ± 0.16 µM | 0.3 | 0.76 ± 0.05 µM |
| C=C1CC[C@H]2C(C)(C)CCC[C@]2(C)[C@H]1CC/C(C)=C/C(=O)NCC(=O)O [Compound 4s, ((E)-3-methyl-5-((1S,4aS,8aS)-5,5,8a-trimethyl-2-methylenedecahydro-naphthalen-1-yl)pent-2-enoyl)glycine] | 84.14 ± 0.09 µM | 1.6 | 75.1 ± 3.24 µM | 1.8 | > 120 µM | 1.0 | > 120 µM | 1.0 | – | – | > 120 µM | 1.0 | > 120 µM | 1.0 | > 120 µM | 1.0 | > 120 µM | 1.0 | > 120 µM |

— paper PMC10439230 (Scientific Reports, 2023)
